# Assay results taken from patent US20230167127A1, “COMPOUNDS AND THEIR USE IN THE TREATMENT OF BACTERIAL INFECTION” (Hoffmann-La Roche Inc., priority 2020, published 2023).
# Where a name gives a salt, the structure may show the parent alone. Read-outs that look alike come from different tables or passages of the source.
# System: Escherichia coli ATCC 25922
# Assay: 50% growth inhibitory concentration (IC50) determination, Iso-Sensitest broth dilution
# Type: cell-based
# Settings: strain Escherichia coli ATCC 25922, 10-point broth dilution, optical density at 600 nm over 16 h, read-out: Escherichia coli growth inhibition IC50
# In short: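 Growth was tracked as optical density at 600 nm every 20 minutes for 16 h at 35±2° C. Compounds from DMSO stocks were serially diluted twofold over 10 points (e.g. 50–0.097 μM final) in Iso-Sensitest broth. Inhibition computed in log-phase growth to give IC50.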
# [1] = Escherichia coli, ATCC25922, 16 h
SMILES,IC50 [1],IC50
"N#Cc1cccc2c1CC(N[C@H]1C[C@H](C3CN(c4ccc5c(n4)NC(=O)CO5)C(=O)O3)C1)C2 (stereo partly drawn) [Example 14, 2-[[trans-3-[2-oxo-3-(3-oxo-4H-pyrido[3,2-b][1,4]oxazin-6-yl)-1,3-oxazolidin-5-yl]cyclobutyl]amino]-2,3-dihydro-1H-indene-4-carbonitrile]",415 nM,–
"Cc1nc(OCC2CNC2)c(C)c2c1CC(CNCCC1CN(c3ccc4c(n3)NC(=O)CO4)C(=O)O1)C2 (centres unmarked) [Example 184, 6-[5-[2-[[3-(azetidin-3-ylmethoxy)-1,4-dimethyl-6,7-dihydro-5H-cyclopenta[c]pyridin-6-yl]methylamino]ethyl]-2-oxo-1,3-oxazolidin-3-yl]-4H-pyrido[3,2-b][1,4]oxazin-3-one hydrochloride]",425 nM,–
"N#Cc1c(OCC2CCN2)ccc2c1CC(CNCCC1CN(c3ccc4c(n3)NC(=O)CO4)C(=O)O1)C2 (centres unmarked) [Example 137, 5-(azetidin-2-ylmethoxy)-2-[[2-[2-oxo-3-(3-oxo-4H-pyrido[3,2-b][1,4]oxazin-6-yl)-1,3-oxazolidin-5-yl]ethylamino]methyl]-2,3-dihydro-1H-indene-4-carbonitrile; formic acid]",801 nM,–
"CC(N)COc1ccc2c(c1C#N)CC(CNCCC1CN(c3ccc4c(n3)NC(=O)CO4)C(=O)O1)C2 (centres unmarked) [Example 134, 5-(2-aminopropoxy)-2-[[2-[2-oxo-3-(3-oxo-4H-pyrido[3,2-b][1,4]oxazin-6-yl)-1,3-oxazolidin-5-yl]ethylamino]methyl]-2,3-dihydro-1H-indene-4-carbonitrile; formic acid]",114 nM,–
"Cc1ncc(Cl)c2c1CC(CNCCC1CN(c3cnc4c(n3)NC(=O)CO4)C(=O)O1)C2 (centres unmarked) [Example 60, 6-[5-[2-[(4-chloro-1-methyl-6,7-dihydro-5H-cyclopenta[c]pyridin-6-yl)methylamino]ethyl]-2-oxo-1,3-oxazolidin-3-yl]-4H-pyrazino[2,3-b][1,4]oxazin-3-one; formic acid]",< 97.7 nM,–
"NC1c2cccc(F)c2CC1CNCCC1CN(c2ccc3c(n2)NC(=O)CS3)C(=O)O1 (racemic) [Example 165, 5-[2-[(rac-1,2-trans-1-amino-4-fluoro-2,3-dihydro-1H-inden-2-yl)methylamino]ethyl]-3-(3-oxo-4H-pyrido[3,2-b][1,4]thiazin-6-yl)-1,3-oxazolidin-2-one; formic acid]",< 97.7 nM,–
"NC1(COc2cc3c(c(Cl)n2)CC(CNCCC2CN(c4ccc5c(n4)NC(=O)CO5)C(=O)O2)C3)CC1 (centres unmarked) [Example 122, 6-[5-[2-[[3-[(1-aminocyclopropyl)methoxy]-1-chloro-6,7-dihydro-5H-cyclopenta[c]pyridin-6-yl]methylamino]ethyl]-2-oxo-1,3-oxazolidin-3-yl]-4H-pyrido[3,2-b][1,4]oxazin-3-one; formic acid]",< 97.7 nM,–
"NC1(COc2cc(Cl)c3c(c2)CC(CNCCC2CN(c4ccc5c(n4)NC(=O)CO5)C(=O)O2)C3)CC1 (centres unmarked) [Example 178, 6-[5-[2-[[6-[(1-aminocyclopropyl)methoxy]-4-chloro-2,3-dihydro-1H-inden-2-yl]methylamino]ethyl]-2-oxo-1,3-oxazolidin-3-yl]-4H-pyrido[3,2-b][1,4]oxazin-3-one]",< 97.7 nM,–
"O=C1COc2ccc(N3CC(CCNCC4Cc5ccccc5C4)OC3=O)nc2N1 (centres unmarked) [Example 87, 6-[5-[2-(2,3-dihydro-1H-inden-2-ylmethylamino)ethyl]-2-oxo-1,3-oxazolidin-3-yl]-4H-pyrido[3,2-b][1,4]oxazin-3-one]",584 nM,–

# The next lines start with the values.
IC50 [1],IC50,SMILES
–,289 nM,"Cc1ncc(F)c2c1CC(CN1CCC3(CN(c4ccc5c(n4)NC(=O)CO5)C(=O)O3)C(CN)C1)C2 (racemic) [Example 250, 6-[rac-5,6-trans-6-(Aminomethyl)-8-[(4-fluoro-1-methyl-6,7-dihydro-5H-cyclopenta[c]pyridin-6-yl)methyl]-2-oxo-1-oxa-3,8-diazaspiro[4.5]decan-3-yl]-4H-pyrido[3,2-b][1,4]oxazin-3-one]"
< 97.7 nM,–,"NC1c2cccc(Cl)c2CC1CCN1CC2(C1)CN(c1ccc3c(n1)NC(=O)CO3)C(=O)O2 (racemic) [Example 195, 6-[6-oxo-2-[2-[rac-1,2-trans-1-amino-4-chloro-2,3-dihydro-1H-inden-2-yl]ethyl]-5-oxa-2,7-diazaspiro[3.4]octan-7-yl]-4H-pyrido[3,2-b][1,4]oxazin-3-one; 2,2,2-trifluoroacetic acid]"
< 97.7 nM,–,"Cc1c(OCC2(N)CC2)nc(C#N)c2c1CC(CNCCC1CN(c3ccc4c(n3)NC(=O)CO4)C(=O)O1)C2 (centres unmarked) [Example 213, 3-[(1-aminocyclopropyl)methoxy]-4-methyl-6-[[2-[2-oxo-3-(3-oxo-4H-pyrido[3,2-b][1,4]oxazin-6-yl)-1,3-oxazolidin-5-yl]ethylamino]methyl]-6,7-dihydro-5H-cyclopenta[c]pyridine-1-carbonitrile]"
< 97.7 nM,–,"O=C1COc2ncc(N3CC(C4CCN(C5Cc6cccc(F)c6C5)CC4)OC3=O)nc2N1 (centres unmarked) [Example 350, 6-[5-[1-(4-fluoro-2,3-dihydro-1H-inden-2-yl)piperidin-4-yl]-2-oxo-1,3-oxazolidin-3-yl]-4H-pyrazino[2,3-b][1,4]oxazin-3-one]"
144 nM,–,"N#CCOc1cc(F)c2c(c1)CC(CNCCC1CN(c3cnc4c(n3)NC(=O)CO4)C(=O)O1)C2 (centres unmarked) [Example 366, 2-[[7-fluoro-2-[[2-[2-oxo-3-(3-oxo-4H-pyrazino[2,3-b][1,4]oxazin-6-yl)-1,3-oxazolidin-5-yl]ethylamino]methyl]-2,3-dihydro-1H-inden-5-yl]oxy]acetonitrile; formic acid]"
< 97.7 nM,–,Cc1ncc(F)c2c1C[C@H](CNCC[C@H]1CN(c3cnc4c(n3)NC(=O)CO4)C(=O)O1)C2 [Example 429]
< 97.7 nM,–,"Cc1ncc(Cl)c2c1CC(CNCCC1CN(c3ccc4c(n3)NC(=O)CO4)C(=O)O1)C2N (racemic) [Example 262, 6-[5-[2-[(rac-5,6-trans-5-Amino-4-chloro-1-methyl-6,7-dihydro-5H-cyclopenta[c]pyridin-6-yl)methylamino]ethyl]-2-oxo-1,3-oxazolidin-3-yl]-4H-pyrido[3,2-b][1,4]oxazin-3-one; formic acid]"
< 97.7 nM,–,"NC1c2cccc(Cl)c2CC1CNCCC1CN(c2ccc3c(n2)NC(=O)CS3)C(=O)O1 (racemic) [Example 246, 5-[2-[(rac-1,2-trans-1-amino-4-chloro-2,3-dihydro-1H-inden-2-yl)methylamino]ethyl]-3-(3-oxo-4H-pyrido[3,2-b][1,4]thiazin-6-yl)-1,3-oxazolidin-2-one]"
< 97.7 nM,–,"Cc1c(F)cnc2c1CC(CNCCC1CN(c3cnc4c(n3)NC(=O)CO4)C(=O)O1)C2 (centres unmarked) [Example 299, 6-[5-[2-[(3-fluoro-4-methyl-6,7-dihydro-5H-cyclopenta[b]pyridin-6-yl)methylamino]ethyl]-2-oxo-1,3-oxazolidin-3-yl]-4H-pyrazino[2,3-b][1,4]oxazin-3-one]"
< 97.7 nM,–,"O=C1COc2ncc(N3CC(CCNCC4Cc5cc(O)cc(F)c5C4)OC3=O)nc2N1 (centres unmarked) [Example 317, 6-[5-[2-[(4-Fluoro-6-hydroxy-2,3-dihydro-1H-inden-2-yl)methylamino]ethyl]-2-oxo-1,3-oxazolidin-3-yl]-4H-pyrazino[2,3-b][1,4]oxazin-3-one]"
< 97.7 nM,–,"NC1c2cccc(Cl)c2CC1CCNCC1CN(c2ccc3c(n2)NC(=O)CO3)C(=O)O1 (racemic) [Example 194, 6-[2-oxo-5-[[2-[rac-1,2-trans-1-amino-4-chloro-2,3-dihydro-1H-inden-2-yl]ethylamino]methyl]-1,3-oxazolidin-3-yl]-4H-pyrido[3,2-b][1,4]oxazin-3-one]"
